Measurements published in PubChem BioAssay AID1963444 (Molecular Pharmacology Branch, DTP, NCI, 2024).

Tested on: HSSY-II complex spheroid growth, percent test/control
Experiment: Anticancer human tumor HSSY-II cell line growth inhibition [Asc];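 further: spheroids exposed to drug for 7 days before reading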
Details: for IC50: curve of first compound; for viability, T/C: stronger effect = lower value
How it was run: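 Complex spheroids combining tumor cells with HUVEC endothelial cells and human MSCs, at 37 degrees C, 5% CO2; agents tested alone or combined, half-log dilutions from at or near clinical Cmax, or 10 microM if Cmax unknown.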

[1] = second compound 0.1 µM, first compound 0.0316 µM
[2] = second compound 0.1 µM, first compound 0.1 µM
[3] = second compound 0.1 µM, first compound 0.316 µM
[4] = second compound 0.1 µM, first compound 1 µM
[5] = second compound 0.1 µM, first compound 3.16 µM
[6] = second compound 0.1 µM, first compound 10 µM
[7] = second compound 0.316 µM, first compound 0.0316 µM
[8] = second compound 0.316 µM, first compound 0.1 µM
[9] = second compound 0.316 µM, first compound 0.316 µM
[10] = second compound 0.316 µM, first compound 1 µM
[11] = second compound 0.316 µM, first compound 3.16 µM
[12] = second compound 0.316 µM, first compound 10 µM
[13] = second compound 1 µM, first compound 0.0316 µM
[14] = second compound 1 µM, first compound 0.1 µM
[15] = second compound 1 µM, first compound 0.316 µM
[16] = second compound 1 µM, first compound 1 µM
[17] = second compound 1 µM, first compound 3.16 µM
[18] = second compound 1 µM, first compound 10 µM
[19] = second compound 3.16 µM, first compound 0.0316 µM
[20] = second compound 3.16 µM, first compound 0.1 µM
[21] = second compound 3.16 µM, first compound 0.316 µM
[22] = second compound 3.16 µM, first compound 1 µM
[23] = second compound 3.16 µM, first compound 3.16 µM
[24] = second compound 3.16 µM, first compound 10 µM
[25] = second compound 10 µM, first compound 0.0316 µM
[26] = second compound 10 µM, first compound 0.1 µM
[27] = second compound 10 µM, first compound 0.316 µM
[28] = second compound 10 µM, first compound 1 µM
[29] = second compound 10 µM, first compound 3.16 µM
[30] = second compound 10 µM, first compound 10 µM

C=C(F)C(=O)N1CCN(c2nc(OCC3CCCN3C)nc3c2CCN(c2cccc4cccc(Cl)c24)C3)CC1CC#N (stereo not given) + Cc1c(S(C)(=O)=O)c(-c2cc(F)cc(N3CCN(c4ccc(NS(=O)(=O)c5ccc(NC(CCN6CCC(C(=O)OCCCP(=O)(O)O)CC6)CSc6ccccc6)c(S(=O)(=O)C(F)(F)F)c5)cc4)CC3)c2)c(-c2ccc(Cl)cc2)n1C(C)C
IC50 (second compound 0.1 µM): 1440 nM | IC50 (second compound 0.316 µM): 1360 nM | IC50 (second compound 1 µM): 1150 nM | IC50 (second compound 3.16 µM): 1030 nM | IC50 (second compound 10 µM): 997 nM | viability, T/C [1]: 106% | viability, T/C [2]: 106% | viability, T/C [3]: 86.7% | viability, T/C [4]: 72.7% | viability, T/C [5]: 0.9% | viability, T/C [6]: 0.13% | viability, T/C [7]: 105% | viability, T/C [8]: 92% | viability, T/C [9]: 84% | viability, T/C [10]: 68% | viability, T/C [11]: 0.59% | viability, T/C [12]: 0.11% | viability, T/C [13]: 98.4% | viability, T/C [14]: 97.3% | viability, T/C [15]: 95.6% | viability, T/C [16]: 57% | viability, T/C [17]: 0.36% | viability, T/C [18]: 0.12% | viability, T/C [19]: 104% | viability, T/C [20]: 98% | viability, T/C [21]: 97% | viability, T/C [22]: 51.6% | viability, T/C [23]: 0.27% | viability, T/C [24]: 0.13% | viability, T/C [25]: 106% | viability, T/C [26]: 113% | viability, T/C [27]: 85.3% | viability, T/C [28]: 55.7% | viability, T/C [29]: 0.4% | viability, T/C [30]: 0.22%

C=CC(=O)N1CCN(c2nc(=O)n(-c3c(C)ccnc3C(C)C)c3nc(-c4c(O)cccc4F)c(F)cc23)C(C)C1 (stereo not given) + Cc1c(S(C)(=O)=O)c(-c2cc(F)cc(N3CCN(c4ccc(NS(=O)(=O)c5ccc(NC(CCN6CCC(C(=O)OCCCP(=O)(O)O)CC6)CSc6ccccc6)c(S(=O)(=O)C(F)(F)F)c5)cc4)CC3)c2)c(-c2ccc(Cl)cc2)n1C(C)C
IC50 (second compound 0.1 µM): > 10000 nM | IC50 (second compound 0.316 µM): > 10000 nM | IC50 (second compound 1 µM): > 10000 nM | IC50 (second compound 3.16 µM): > 10000 nM | IC50 (second compound 10 µM): > 10000 nM | viability, T/C [1]: 116% | viability, T/C [2]: 121% | viability, T/C [3]: 105% | viability, T/C [4]: 111% | viability, T/C [5]: 97.8% | viability, T/C [6]: 67.7% | viability, T/C [7]: 114% | viability, T/C [8]: 110% | viability, T/C [9]: 105% | viability, T/C [10]: 99.9% | viability, T/C [11]: 114% | viability, T/C [12]: 67.8% | viability, T/C [13]: 104% | viability, T/C [14]: 111% | viability, T/C [15]: 96.4% | viability, T/C [16]: 100% | viability, T/C [17]: 105% | viability, T/C [18]: 51.3% | viability, T/C [19]: 109% | viability, T/C [20]: 99.9% | viability, T/C [21]: 101% | viability, T/C [22]: 107% | viability, T/C [23]: 103% | viability, T/C [24]: 55% | viability, T/C [25]: 100% | viability, T/C [26]: 99.2% | viability, T/C [27]: 93.1% | viability, T/C [28]: 110% | viability, T/C [29]: 96.7% | viability, T/C [30]: 61.3%

CCN1C(C(=O)NC23CCC(C(=O)O)(CC2)CC3)C(c2cccc(Cl)c2F)C2(C(=O)Nc3cc(Cl)ccc32)C12CCCCC2 (stereo not given) + Cc1c(S(C)(=O)=O)c(-c2cc(F)cc(N3CCN(c4ccc(NS(=O)(=O)c5ccc(NC(CCN6CCC(C(=O)OCCCP(=O)(O)O)CC6)CSc6ccccc6)c(S(=O)(=O)C(F)(F)F)c5)cc4)CC3)c2)c(-c2ccc(Cl)cc2)n1C(C)C
IC50 (second compound 0.1 µM): 100 nM | IC50 (second compound 0.316 µM): 59.4 nM | IC50 (second compound 1 µM): 83.5 nM | IC50 (second compound 3.16 µM): 54.2 nM | IC50 (second compound 10 µM): 53.9 nM | viability, T/C (second compound 0.1 µM, first compound 0.00949 µM): 106% | viability, T/C (second compound 0.1 µM, first compound 0.03 µM): 92.7% | viability, T/C (second compound 0.1 µM, first compound 0.0949 µM): 49.4% | viability, T/C (second compound 0.1 µM, first compound 0.3 µM): 19.4% | viability, T/C (second compound 0.1 µM, first compound 0.949 µM): 3.79% | viability, T/C (second compound 0.1 µM, first compound 3 µM): 0.58% | viability, T/C (second compound 0.316 µM, first compound 0.00949 µM): 102% | viability, T/C (second compound 0.316 µM, first compound 0.03 µM): 78.1% | viability, T/C (second compound 0.316 µM, first compound 0.0949 µM): 29.7% | viability, T/C (second compound 0.316 µM, first compound 0.3 µM): 11.1% | viability, T/C (second compound 0.316 µM, first compound 0.949 µM): 3.4% | viability, T/C (second compound 0.316 µM, first compound 3 µM): 0.3% | viability, T/C (second compound 1 µM, first compound 0.00949 µM): 104% | viability, T/C (second compound 1 µM, first compound 0.03 µM): 84.6% | viability, T/C (second compound 1 µM, first compound 0.0949 µM): 47.4% | viability, T/C (second compound 1 µM, first compound 0.3 µM): 9.68% | viability, T/C (second compound 1 µM, first compound 0.949 µM): 1.67% | viability, T/C (second compound 1 µM, first compound 3 µM): 0.19% | viability, T/C (second compound 3.16 µM, first compound 0.00949 µM): 94.3% | viability, T/C (second compound 3.16 µM, first compound 0.03 µM): 73.3% | viability, T/C (second compound 3.16 µM, first compound 0.0949 µM): 28% | viability, T/C (second compound 3.16 µM, first compound 0.3 µM): 4.69% | viability, T/C (second compound 3.16 µM, first compound 0.949 µM): 1.19% | viability, T/C (second compound 3.16 µM, first compound 3 µM): 0.17% | viability, T/C (second compound 10 µM, first compound 0.00949 µM): 92.8% | viability, T/C (second compound 10 µM, first compound 0.03 µM): 73.6% | viability, T/C (second compound 10 µM, first compound 0.0949 µM): 27.2% | viability, T/C (second compound 10 µM, first compound 0.3 µM): 4.78% | viability, T/C (second compound 10 µM, first compound 0.949 µM): 1.16% | viability, T/C (second compound 10 µM, first compound 3 µM): 0.26%
